Assay results from PubChem BioAssay AID1259411 (Chemical Carcinogenesis Research Information System (CCRIS), 2018).
Activity calls are given as the source filed them. How the calls were made is not given here.

System: rodent carcinogenicity bioassays, tumor incidence
Experiment: CCRIS carcinogenicity studies
How it was run: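 Archive of carcinogenicity, mutagenicity, tumor promotion and tumor inhibition results drawn from journals, NCI reports and other sources, expert-reviewed; covers 1985-2011 and is no longer updated.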

SMILES: CCCOC(=O)c1cc(O)c(O)c(O)c1
- carcinogen call (Species: MOUSE, Strain/Sex: B6C3F1/FEMALE, Route: ORAL, Dose: 0, 6000, 12000 PPM IN DIET FOR 103 WK (STUDY DURATION: 103 WK), Dose: 0, 6000, 12000 PPM IN DIET FOR 103 WK (STUDY DURATION: 103 WK)): inactive; negative
- carcinogen call (Species: MOUSE, Strain/Sex: B6C3F1/MALE, Route: ORAL, Dose: 0, 6000, 12000 PPM IN DIET FOR 103 WK (STUDY DURATION: 103 WK), Dose: 0, 6000, 12000 PPM IN DIET FOR 103 WK (STUDY DURATION: 103 WK), Tumor Site: Type of Lesion: HEMATOPOIETIC SYSTEM: MALIGNANT LYMPHOMA): equivocal
- carcinogen call (Species: RAT, Strain/Sex: F344/FEMALE, Route: ORAL, Dose: 0, 6000, 12000 PPM IN DIET FOR 103 WK (STUDY DURATION: 103 WK), Dose: 0, 6000, 12000 PPM IN DIET FOR 103 WK (STUDY DURATION: 103 WK)): inactive; negative
- carcinogen call (Species: RAT, Strain/Sex: F344/MALE, Route: ORAL, Dose: 0, 6000, 12000 PPM IN DIET FOR 103 WK (STUDY DURATION: 103 WK), Dose: 0, 6000, 12000 PPM IN DIET FOR 103 WK (STUDY DURATION: 103 WK), Tumor Site: Type of Lesion: PREPUTIAL GLAND: CARCINOMA OR ADENOMA OR ADENOCARCINOMA, PANCREAS: ISLET CELL ADENOMA OR CARCINOMA, ADRENAL GLAND: PHEOC, Tumor Site: Type of Lesion: PREPUTIAL GLAND: CARCINOMA OR ADENOMA OR ADENOCARCINOMA, PANCREAS: ISLET CELL ADENOMA OR CARCINOMA, ADRENAL GLAND: PHEOC): equivocal

SMILES: CCCCCCCCCCCCCC(=O)ON(C(C)=O)c1ccc2c(c1)Cc1cc(I)ccc1-2
- carcinogen call (Species: RAT, Strain/Sex: F344/MALE, Route: SUBCUTANEOUS, Dose: 10.6 UMOL IN 0.2 ML DMSO-TRIOCTANOIN 1/WK FOR 6 WK, Tumor Site: Type of Lesion: INJECTION SITE: FIBROSARCOMA OR FIBROMYOSARCOMA OR FIBROLIPOSARCOMA): active; positive

SMILES: CCC(=O)N(O)c1ccc(/C=C/c2ccccc2)cc1
- carcinogen call (Species: RAT, Strain/Sex: STRAIN-CD/FEMALE, Route: INTRAPERITONEAL, Dose: 0, 10 UMOL/KG BW 2/WK FOR 6 WK (STUDY DURATION: 62 WK), Tumor Site: Type of Lesion: LIVER: NEOPLASTIC NODULE, MAMMARY GLAND: TUMOR, EAR DUCT: TUMOR, PITUITARY GLAND: CARCINOMA, Tumor Site: Type of Lesion: LIVER: NEOPLASTIC NODULE, MAMMARY GLAND: TUMOR, EAR DUCT: TUMOR, PITUITARY GLAND: CARCINOMA): active; positive
- carcinogen call (Species: RAT, Strain/Sex: STRAIN-CD/MALE, Route: INTRAPERITONEAL, Dose: 0, 10 UMOL/KG BW 2/WK FOR 6 WK (STUDY DURATION: 62 WK), Tumor Site: Type of Lesion: TESTICLE: MESOTHELIOMA, PANCREAS(ACINUS): ADENOMA, PANCREAS(ISLET CELL): CARCINOMA, EAR DUCT: ADENOMA, CARCINOMA, LIVER:, Tumor Site: Type of Lesion: TESTICLE: MESOTHELIOMA, PANCREAS(ACINUS): ADENOMA, PANCREAS(ISLET CELL): CARCINOMA, EAR DUCT: ADENOMA, CARCINOMA, LIVER:): active; positive

SMILES: O=C(O)C(Cl)Br (configuration not stated)
- carcinogen call (Species: Mouse, Strain/Sex: B6C3F1 / Female (50/Group), Route: Oral, Dose: 0, 250, 500, 1,000 mg/l in drinking water for 105 wk, Dose: 0, 250, 500, 1,000 mg/l in drinking water for 105 wk, Tumor Site: Type of Lesion: Liver: hepatocellular neoplasms): active; positive. authors describe as clear evidence
- carcinogen call (Species: Mouse, Strain/Sex: B6C3F1 / Male (50/Group), Route: Oral, Dose: 0, 250, 500, 1,000 mg/l in drinking water for 105 wk, Dose: 0, 250, 500, 1,000 mg/l in drinking water for 105 wk, Tumor Site: Type of Lesion: Liver: hepatocellular neoplasms and hepatoblastoma): active; positive. authors describe as clear evidence
- carcinogen call (Species: Rat, Strain/Sex: F344/N / Female (50/Group), Route: Oral, Dose: 0, 250, 500, 1,000 mg/l in drinking water for 105 wk, Dose: 0, 250, 500, 1,000 mg/l in drinking water for 105 wk, Tumor Site: Type of Lesion: Large Intestine: adenoma, Mammary Gland: multiple fibroadenomas, Pancreatic Islet: adenoma (may have been related), Tumor Site: Type of Lesion: Large Intestine: adenoma, Mammary Gland: multiple fibroadenomas, Pancreatic Islet: adenoma (may have been related)): active; positive (some of the p values do not reach significance.) authors describe as c
- carcinogen call (Species: Rat, Strain/Sex: F344/N / Male (50/Group), Route: Oral, Dose: 0, 250, 500, 1,000 mg/l in drinking water for 105 wk, Dose: 0, 250, 500, 1,000 mg/l in drinking water for 105 wk, Tumor Site: Type of Lesion: Mesothelium: malignant mesothelioma, Large Intestine: adenoma, Pancreatic Islet: adenoma (may have been related), Tumor Site: Type of Lesion: Mesothelium: malignant mesothelioma, Large Intestine: adenoma, Pancreatic Islet: adenoma (may have been related)): active; positive. authors describe as clear evidence.

SMILES: CC1CO1 (configuration not stated)
- carcinogen call (Species: MOUSE, Strain/Sex: B6C3F1/FEMALE, Route: INHALATION, Dose: 0, 200, 400 PPM 6 HR/D, 5 D/WK FOR 103 WK, Dose: 0, 200, 400 PPM 6 HR/D, 5 D/WK FOR 103 WK, Tumor Site: Type of Lesion: NASAL TURBINATES: HEMANGIOMA OR HEMANGIOSARCOMA): active; positive
- carcinogen call (Species: MOUSE, Strain/Sex: B6C3F1/MALE, Route: INHALATION, Dose: 0, 200, 400 PPM 6 HR/D, 5 D/WK FOR 103 WK, Dose: 0, 200, 400 PPM 6 HR/D, 5 D/WK FOR 103 WK, Tumor Site: Type of Lesion: NASAL TURBINATES: HEMANGIOMA, HEMANGIOSARCOMA): active; positive
- carcinogen call (Species: MOUSE, Strain/Sex: NMRI/FEMALE, Route: SUBCUTANEOUS, Dose: 0, 0.1, 0.3, 1, 2.5 MG/MOUSE IN TRICAPRYLIN 1/WK FOR 95 WK (STUDY DURATION: 110 WK), Dose: 0, 0.1, 0.3, 1, 2.5 MG/MOUSE IN TRICAPRYLIN 1/WK FOR 95 WK (STUDY DURATION: 110 WK), Tumor Site: Type of Lesion: INJECTION SITE: TUMOR): active; positive
- carcinogen call (Species: RAT, Route: SUBCUTANEOUS, Tumor Site: Type of Lesion: INJECTION SITE): active; positive
- carcinogen call (Species: RAT, Strain/Sex: F344/FEMALE, Route: INHALATION, Dose: 0, 200, 400 PPM 6 HR/D, 5 D/WK FOR 103 WK, Dose: 0, 200, 400 PPM 6 HR/D, 5 D/WK FOR 103 WK, Tumor Site: Type of Lesion: NASAL TURBINATES: PAPILLARY ADENOMA): active; positive
- carcinogen call (Species: RAT, Strain/Sex: F344/MALE, Route: INHALATION, Dose: 0, 100, 300 PPM IN AIR 7 HR/D 5 D/WK FOR 104 WK (STUDY DURATION: 2 YR), Dose: 0, 100, 300 PPM IN AIR 7 HR/D 5 D/WK FOR 104 WK (STUDY DURATION: 2 YR), Tumor Site: Type of Lesion: ADRENAL GLAND: PHEOCHROMOCYTOMA, PITUITARY GLAND: ADENOMA): active; positive
- carcinogen call (Species: RAT, Strain/Sex: F344/MALE, Route: INHALATION, Dose: 0, 200, 400 PPM 6 HR/D, 5 D/WK FOR 103 WK, Dose: 0, 200, 400 PPM 6 HR/D, 5 D/WK FOR 103 WK, Tumor Site: Type of Lesion: NASAL TURBINATES: PAPILLARY ADENOMA): active; positive
- carcinogen call (Species: RAT, Strain/Sex: SPRAGUE-DAWLEY/FEMALE, Route: GAVAGE, Dose: 15, 60 MG/KG IN SALAD OIL 2/WK FOR UP TO 150 WK, Tumor Site: Type of Lesion: FORESTOMACH: SQUAMOUS CELL CARCINOMA): active; positive
- carcinogen call (Species: RAT, Strain/Sex: SPRAGUE-DAWLEY/MALE, Route: INHALATION, Dose: 0, 435, 870, 1740 PPM 6 HR/D 5 D/WK FOR 30 D EXCEPT 1740 PPM GROUP WHICH WAS EXPOSED FOR 5 D (STUDY DURATION: LIFETIME), Dose: 0, 435, 870, 1740 PPM 6 HR/D 5 D/WK FOR 30 D EXCEPT 1740 PPM GROUP WHICH WAS EXPOSED FOR 5 D (STUDY DURATION: LIFETIME)): inactive; negative

SMILES: CC(=O)O
- carcinogen call (Species: MOUSE, Strain/Sex: SWISS/FEMALE, Route: ORAL, Dose: 0, 5 PPM IN DRINKING WATER FOR DURATION OF STUDY (STUDY DURATION: LIFE SPAN)): inactive; negative
- carcinogen call (Species: MOUSE, Strain/Sex: SWISS/MALE, Route: ORAL, Dose: 0, 5 PPM IN DRINKING WATER FOR DURATION OF STUDY (STUDY DURATION: LIFE SPAN)): inactive; negative
